30 molecules from the supplement of paper PMC6965134 can be followed below.

± gives the standard deviation of the averaged measurements.

Data set [1] can be described thus: TIMS collisional cross section (CCS, N2) of the lipid ion; higher = larger ion cross section. The following applies: ionization mode: negative, one isomer drawn. The protocol: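 Lipid extracts of human plasma (NIST SRM 1950), mouse liver or HeLa cells were separated by nanoflow C18 LC (30 min gradient) and analysed by TIMS-PASEF on a timsTOF Pro. Ion mobility was calibrated with the Agilent tuning mix (negative mode ions) and converted to collisional cross sections (Mason–Schamp, N2).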

Experiment in data set [2]: as above
The note with it: ionization mode: positive, one isomer drawn.

For `CC/C=C\C/C=C\C/C=C\C/C=C\CCCCC(=O)O[C@H](COC(=O)CCCCCCCCCCCCC)COP(=O)([O-])OCC[N+](C)(C)C` [PC 14:0@_18:4], the “TIMS collisional cross section” value in data set [1] (sample type: Human plasma, ion (formula + adduct): [C40H72NO8P+HCOO] 1-) was determined as 277.9 Å².

In the case of `CCCCCCCCCCCCCC/C=C\OC[C@H](COP(=O)([O-])OCC[N+](C)(C)C)OC(=O)CCCCCCCCCCCCCCC` [PC P- 16:0_16:0], the “TIMS collisional cross section” value is 287.8 Å² in data set [1] (sample type: Human plasma, ion (formula + adduct): [C40H80NO7P+HCOO] 1-) and 267.55 ± 2 Å² in data set [1] (sample type: Mouse Liver, ion (formula + adduct): [C40H80NO7P-CH3] 1-). Take `CCCCCCCCCCCCCCCCCC(=O)O[C@H](COC(=O)CCCCCCCCCCCCCCC)COP(=O)([O-])OCC[N+](C)(C)C` [PC 16:0_18:0]: the “TIMS collisional cross section” value in data set [1] (sample type: Human plasma, ion (formula + adduct): [C42H84NO8P+HCOO] 1-) was determined as 293.4 Å²; in data set [1] (sample type: Mouse Liver, ion (formula + adduct): [C42H84NO8P+AcO] 1-), 299.1 Å²; in data set [1] (sample type: Mouse Liver, ion (formula + adduct): [C42H84NO8P+HCOO] 1-) it was 293.4 Å². For the molecule `CCCCCC/C=C\CCCCCCCC(=O)OC[C@H](COP(=O)([O-])OCC[N+](C)(C)C)OC(=O)CCCCCCCCCCCCC/C=C\CCCCCCCC` [PC 16:1@_24:1], the “TIMS collisional cross section” value in data set [1] (sample type: Mouse Liver, ion (formula + adduct): [C48H92NO8P-CH3] 1-) turned out to be 290.9 Å². For `CCCCCCCCCCCCCCCC(=O)O[C@H](COC(=O)CCCCCCCCCCC)COP(=O)(O)OC[C@H](N)C(=O)O` [PS 12:0@_16:0], the “TIMS collisional cross section” value in data set [1] (sample type: Mouse Liver, ion (formula + adduct): [C34H66NO10P-H] 1-) is reported as 262.8 Å². With `CC/C=C\C/C=C\C/C=C\C/C=C\C/C=C\C/C=C\CCC(=O)O[C@H](COC(=O)CCCCCCC/C=C\CCCCCCCC)COP(=O)(O)OC[C@H](N)C(=O)O` [PS 18:1@_22:6], the “TIMS collisional cross section” value in data set [1] (sample type: Mouse Liver, ion (formula + adduct): [C46H76NO10P-H] 1-) worked out at 288 Å².

`CCCCC/C=C\C/C=C\C/C=C\C/C=C\CCCC(=O)O[C@H](COC(=O)CCCCCCCCCCCC)COP(=O)([O-])OCC[N+](C)(C)C` [PC 13:0@_20:4]: the “TIMS collisional cross section” value is listed as 289.2 Å² in data set [1] (sample type: Human plasma, ion (formula + adduct): [C41H74NO8P-H] 1-); 267.1 Å² in data set [1] (sample type: Mouse Liver, ion (formula + adduct): [C41H74NO8P-CH3] 1-); 272.3 Å² in data set [1] (sample type: Mouse Liver, ion (formula + adduct): [C41H74NO8P-H] 1-). Take `CCCCC/C=C\C/C=C\C/C=C\CCCCCCC(=O)OC[C@@H](O)COP(=O)(O)OCCN` [LPE 20:3_0:0]: in data set [1] (sample type: Mouse Liver, ion (formula + adduct): [C25H46NO7P-H] 1-), the “TIMS collisional cross section” value is 217.6 ± 0.42 Å². On to `CCCCCCCCCCCCCCCCCC(=O)OCC(COP(=O)(O)OCCN)OC(=O)CCCCCCCCCCCCCCCCC` (stereo not drawn) [PE 18:0_18:0], for which, in data set [1] (sample type: Mouse Liver, ion (formula + adduct): [C41H82NO8P-H] 1-), the “TIMS collisional cross section” value amounted to 275.1 Å². Consider `CCCCC/C=C\C/C=C\C/C=C\C/C=C\CCCC(=O)O[C@H](COCCCCCCCC/C=C\CCCCCCCC)COP(=O)([O-])OCC[N+](C)(C)C` [PC O- 18:1@_20:4], for which the “TIMS collisional cross section” value in data set [1] (sample type: Human plasma, ion (formula + adduct): [C46H84NO7P+HCOO] 1-) was determined as 297.5 ± 0.42 Å²; in data set [1] (sample type: Human plasma, ion (formula + adduct): [C46H84NO7P-CH3] 1-), 282.5 Å²; in data set [1] (sample type: Mouse Liver, ion (formula + adduct): [C46H84NO7P+HCOO] 1-), 296.1 Å²; in data set [1] (sample type: Mouse Liver, ion (formula + adduct): [C46H84NO7P-CH3] 1-) it was 282.5 Å². On to `CCCCCCCC/C=C\CCCCCCCCCC(=O)O[C@H](COC(=O)CCCCCCCCCCCCCCCCC)COP(=O)([O-])OCC[N+](C)(C)C` [PC 18:0_20:1], for which the “TIMS collisional cross section” value in data set [1] (sample type: Mouse Liver, ion (formula + adduct): [C46H90NO8P+HCOO] 1-) amounted to 302.3 Å².

As for `CCCCCCCC/C=C\CCCCCCCC(=O)O[C@@H](CO)COC(=O)CCCCCCCCCCCC` [DG 13:0_18:1@_0:0], the “TIMS collisional cross section” value in data set [1] (sample type: Mouse Liver, ion (formula + adduct): [C34H64O5+AcO] 1-) is recorded as 252.3 Å². Take `CC/C=C\C/C=C\C/C=C\C/C=C\C/C=C\C/C=C\CCC(=O)O[C@H](COC(=O)CCCCCCCCCCCCCCC)COP(=O)([O-])OCC[N+](C)(C)C` [PC 16:0_22:6]: the “TIMS collisional cross section” value in data set [1] (sample type: Human plasma, ion (formula + adduct): [C46H80NO8P+HCOO] 1-) was determined as 297.8 Å²; in data set [1] (sample type: Mouse Liver, ion (formula + adduct): [C46H80NO8P+HCOO] 1-) it was 297.75 ± 0.78 Å². Consider `CCCCC/C=C\C/C=C\CCCCCCCC(=O)OC(COC(=O)CCCCCCCCCCCCCCCCC)COP(=O)(O)OCCN` (stereo not drawn) [PE 18:0@_18:2], for which, in data set [1] (sample type: Human plasma, ion (formula + adduct): [C41H78NO8P-H] 1-), the “TIMS collisional cross section” value was determined as 273.4 Å². For `CCCC/C=C\CCCCCCCC(=O)OC[C@H](CO)OC(=O)CCCCCCCCC/C=C\C/C=C\CCCCC` [DG 14:1@_20:2_0:0], the “TIMS collisional cross section” value in data set [1] (sample type: Human plasma, ion (formula + adduct): [C37H66O5-H] 1-) is on record as 247.2 Å². Consider `CC/C=C\C/C=C\C/C=C\C/C=C\C/C=C\C/C=C\CCC(=O)O[C@H](COCCCCCCCCCCCCCCCC)COP(=O)([O-])OCC[N+](C)(C)C` [PC O- 16:0@_22:6], for which the “TIMS collisional cross section” value in data set [1] (sample type: Human plasma, ion (formula + adduct): [C46H82NO7P+HCOO] 1-) turned out to be 298.4 Å²; in data set [1] (sample type: Mouse Liver, ion (formula + adduct): [C46H82NO7P+HCOO] 1-) it was 296.7 Å². As to `CCCCCCCCCCCCCCCCCC(=O)OC[C@@H](COC(=O)CCCCCCCCCCCCCC)OC(=O)CCCCCCCCCCCCCCC` [TG 15:0_16:0_18:0] (ion (formula + adduct): [C52H100O6+NH4] 1+), the “TIMS collisional cross section” value in data set [2] (sample type: plasma) was 317.33 ± 0.31 Å². Take `CC/C=C\C/C=C\C/C=C\CCCCCCCC(=O)O[C@@H](CO)COC(=O)CCCCCCCCCCCCCCC` [DG 16:0_18:3_0:0] (ion (formula + adduct): [C37H66O5+NH4] 1+): the figures for the “TIMS collisional cross section” value in data set [2] (sample type: HeLa) and in data set [2] (sample type: Liver) were 257.3 Å² and 257.1 Å², respectively.

As for `CC(C)CC[C@@H](O)[C@](C)(O)[C@H]1CC[C@@]2(O)C3=CC(=O)[C@@H]4C[C@@H](O)[C@@H](O)C[C@]4(C)[C@H]3CC[C@]12C` [ponasterone A] (ion (formula + adduct): [C27H44O6+H] 1+), in data set [2] (sample type: plasma), the “TIMS collisional cross section” value was found to be 219 Å².

In the case of `CC/C=C\C/C=C\C/C=C\C/C=C\C/C=C\C/C=C\CCC(=O)OC[C@H](COP(=O)([O-])OCC[N+](C)(C)C)OC(=O)CC/C=C\C/C=C\C/C=C\C/C=C\C/C=C\C/C=C\CC` [PC 22:6_22:6] (ion (formula + adduct): [C52H80NO8P+H] 1+), the “TIMS collisional cross section” value in data set [2] (sample type: HeLa) was found to be 298.6 Å². For the molecule `CCCCC/C=C\C/C=C\CCCCCCCC(=O)OC[C@H](COP(=O)([O-])OCC[N+](C)(C)C)OC(=O)CCCCCCCCCCCCCCCCCC` [PC 18:2_19:0] (ion (formula + adduct): [C45H86NO8P+H] 1+), the “TIMS collisional cross section” value in data set [2] (sample type: Liver) came out at 294.4 Å². Turning to `CC/C=C\C/C=C\C/C=C\C/C=C\C/C=C\C/C=C\CCC(=O)O[C@H](COC(=O)CCCCCCCCCCCCCC)COP(=O)([O-])OCC[N+](C)(C)C` [PC 15:0@_22:6] (ion (formula + adduct): [C45H78NO8P+H] 1+), the “TIMS collisional cross section” value in data set [2] (sample type: plasma) turned out to be 288.2 Å². With `CCCC/C=C\CCCCCCCC(=O)OC[C@H](COP(=O)([O-])OCC[N+](C)(C)C)OC(=O)CCCCCCC/C=C\CCCCCC` [PC 14:1@_16:1] (ion (formula + adduct): [C38H72NO8P+H] 1+), in data set [2] (sample type: HeLa), the “TIMS collisional cross section” value turned out to be 272.4 Å². With `CCCCC/C=C\C/C=C\CCCCCCCC(=O)O[C@H](COCCCCCCCCCCCCCCCC)COP(=O)([O-])OCC[N+](C)(C)C` [PC O- 16:0@_18:2] (ion (formula + adduct): [C42H82NO7P+H] 1+), the “TIMS collisional cross section” value in data set [2] (sample type: plasma) is listed as 287.3 Å². As to `CCCCCCCCCCCCC/C=C/[C@@H](O)[C@H](CO)NC(=O)CCCCCCCCCCCCCCCCCCCCC` [Cer d18:1_22:0@] (ion (formula + adduct): [C40H79NO3+H] 1+), the results for the “TIMS collisional cross section” value in data set [2] (sample type: HeLa) and in data set [2] (sample type: Liver) were 274.3 Å² and 274.9 Å², respectively. For `CCCCC/C=C\C/C=C\C/C=C\CCCCC(=O)O[C@H](COC(=O)CCCCCCC/C=C\C/C=C\CCCCC)COP(=O)(O)OCCN` [PE 18:2_18:3] (ion (formula + adduct): [C41H72NO8P+H] 1+), the “TIMS collisional cross section” value in data set [2] (sample type: Liver) is 270.2 Å². Regarding `CCCCC/C=C\C/C=C\C/C=C\C/C=C\CCCC(=O)O[C@H](COC(=O)CCCCCCCCCCCCCCCC)COP(=O)(O)OCCN` [PE 17:0_20:4@] (ion (formula + adduct): [C42H76NO8P+H] 1+), the “TIMS collisional cross section” value in data set [2] (sample type: HeLa) turned out to be 280.4 Å²; in data set [2] (sample type: Liver) it was 280.35 ± 0.071 Å². Consider `CCCCC/C=C\C/C=C\CCCCCCCC(=O)O[C@H](COC(=O)CCCCCCC/C=C\CCCCCCC)COP(=O)([O-])OCC[N+](C)(C)C` [PC 17:1_18:2] (ion (formula + adduct): [C43H80NO8P+H] 1+), for which the “TIMS collisional cross section” value in data set [2] (sample type: Liver) stood at 285.6 Å². The same measure, in the same setting: as for `CC/C=C\C/C=C\C/C=C\C/C=C\C/C=C\C/C=C\CCC(=O)OC[C@H](COP(=O)(O)OCCN)OC(=O)CCCCCCCCCCCCCCCCCCC` [PE 22:6_20:0] (ion (formula + adduct): [C47H82NO8P+H] 1+), the figure is 292.6 Å². With `CCCCCCCCCCCCCCCC(=O)OC[C@@H](COC(=O)CCCCCCCCCCC)OC(=O)CCCCCCCCCCC` [TG 12:0_12:0_16:0] (ion (formula + adduct): [C43H82O6+NH4] 1+), in data set [2] (sample type: HeLa), the “TIMS collisional cross section” value came to 288 Å².
